1 compound from PubChem BioAssay AID1224918 can be followed below.

For this assay, the system named is MCF7 antiproliferative assay. Nature of the assay: PubChem AID 1224918.

Usually EC50 stands for the concentration needed to bring the measured effect to its halfway point. Turning to `COc1cc(-c2nn(CCN3CCC(N(C)C)CC3)c3ncnc(N)c23)ccc1NC(=O)OC(C)(C)C`, the EC50 is 70 nM.
